Measured values from the supplement of paper PMC10307832.

Assays:
Experiment in all cases: relative viability (nuclei count vs DMSO), 5 days (fraction); higher = more cells survive
Ponatinib + OSI-027 = compound: Cc1ccc(C(=O)Nc2ccc(CN3CCN(C)CC3)c(C(F)(F)F)c2)cc1C#Cc1cnc2cccnn12 [Ponatinib] + COc1cccc2cc(-c3nc([C@H]4CC[C@H](C(=O)O)CC4)n4ncnc(N)c34)[nH]c12 [OSI-027] (partner 0.5 µM)
How it was run: (§1)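 Lung cancer cell lines were seeded in 1536-well plates and dosed by pin tool the next day, with either a single drug or a fixed anchor-drug dose combined with five library-drug doses (not always all listed) spaced in √10 steps. Five days later, one step fixed the cells and stained their nuclei (final 0.05% Triton X-100, 1% formaldehyde, 1 ug/ml Hoechst), and nuclei were counted on 4× images. Relative viability is the nuclei count in treated wells divided by the count in vehicle wells, and each value is the median of duplicate plates.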

Pazopanib + Dasatinib = compound: Cc1ccc(Nc2nccc(N(C)c3ccc4c(C)n(C)nc4c3)n2)cc1S(N)(=O)=O [Pazopanib] + Cc1nc(Nc2ncc(C(=O)Nc3c(C)cccc3Cl)s2)cc(N2CCN(CCO)CC2)n1 [Dasatinib] (partner 0.075 µM)
How it was run: as §1

Ponatinib + Pictilisib = compound: Cc1ccc(C(=O)Nc2ccc(CN3CCN(C)CC3)c(C(F)(F)F)c2)cc1C#Cc1cnc2cccnn12 [Ponatinib] + CS(=O)(=O)N1CCN(Cc2cc3nc(-c4cccc5[nH]ncc45)nc(N4CCOCC4)c3s2)CC1 [Pictilisib] (partner 1 µM)
How it was run: as §1

Pazopanib + Lapatinib = compound: Cc1ccc(Nc2nccc(N(C)c3ccc4c(C)n(C)nc4c3)n2)cc1S(N)(=O)=O [Pazopanib] + CS(=O)(=O)CCNCc1ccc(-c2ccc3ncnc(Nc4ccc(OCc5cccc(F)c5)c(Cl)c4)c3c2)o1 [Lapatinib] (partner 2 µM)
How it was run: as §1

Cell Line	relative viability (Ponatinib + OSI-027; first compound 0.002 µM)	relative viability (Ponatinib + OSI-027; first compound 0.006325 µM)	relative viability (Ponatinib + OSI-027; first compound 0.06325 µM)	relative viability (Ponatinib + OSI-027; first compound 0.2 µM)	relative viability (Pazopanib + Dasatinib; first compound 0.01 µM)	relative viability (Pazopanib + Dasatinib; first compound 0.03162 µM)	relative viability (Pazopanib + Dasatinib; first compound 0.1 µM)	relative viability (Pazopanib + Dasatinib; first compound 0.3162 µM)	relative viability (Pazopanib + Dasatinib; first compound 1 µM)	relative viability (Ponatinib + Pictilisib; first compound 0.002 µM)	relative viability (Ponatinib + Pictilisib; first compound 0.006325 µM)	relative viability (Ponatinib + Pictilisib; first compound 0.06325 µM)	relative viability (Ponatinib + Pictilisib; first compound 0.2 µM)	relative viability (Pazopanib + Lapatinib; first compound 0.01 µM)	relative viability (Pazopanib + Lapatinib; first compound 0.03162 µM)	relative viability (Pazopanib + Lapatinib; first compound 0.1 µM)	relative viability (Pazopanib + Lapatinib; first compound 0.3162 µM)	relative viability (Pazopanib + Lapatinib; first compound 1 µM)
NCI-H2342	0.557	0.602	0.53	0.637	0.303	0.339	0.305	0.297	0.278									
HCC-15	0.643	0.677	0.843	0.599	0.543	0.631	0.612	0.67	0.692	0.644	0.758	0.823	0.701	0.841	0.789	0.907	0.89	1
A-427	0.49	0.429	0.396	0.215	0.652	0.72	0.614	0.694	0.701	0.691	0.756	0.529	0.531	0.992	1.07	1	1.06	1.22
NCI-H2228	0.474	0.431	0.705	0.376	0.589	0.561	0.383	0.481	0.457	0.606	0.698	0.401	0.319	1.32	1.15	0.979	1.08	0.929
NCI-H1734	0.58	0.589	0.521	0.449	0.387	0.471	0.458	0.459	0.478	0.421	0.456	0.414	0.365	0.837	0.777	1.13	1.18	1.09
NCI-H2347	0.373	0.421	0.371	0.239	0.27	0.307	0.303	0.353	0.331	0.677	0.849	0.692	0.414	0.86	0.971	1.08	0.989	1.02
PC-3 [JPC-3]	0.745	0.76	0.754	0.69	0.991	0.939	1.11	0.939	0.983	0.653	0.708	0.885	0.875	0.367	0.463	0.493	0.468	0.451
NCI-H1915	0.546	0.651	0.639	0.56	0.253	0.319	0.321	0.318	0.402	0.892	0.98	1.03	1.03	0.898	1.03	1.01	0.976	0.941
NCI-H1666	0.727	0.762	0.872	0.79	0.854	0.833	0.801	0.864	0.772	0.534	0.436	0.48	0.702	0.644	0.677	0.718	0.763	0.972
HCC-366	0.821	0.984	1	0.655	0.421	0.655	0.762	0.676	0.733	0.149	0.101	0.146	0.275	1.09	1.03	1.09	1.15	1.03
NCI-H1395	0.519	0.57	0.558	0.505	0.398	0.487	0.362	0.452	0.432		0.696	0.657	0.581	0.788	1.27	0.981	1.05	1.1
NCI-H727	0.567	0.558	0.617	0.508	0.402	0.378	0.394	0.444	0.413	0.367	0.514	0.356	0.333	0.79	0.988	0.801	0.878	0.891
RERF-LC-KJ	0.603	0.576	0.688	0.522	0.836	0.773	0.915	0.722	0.765	0.618	0.582	0.781	0.68	0.761	0.758	0.815	0.734	0.799
NCI-H1623	0.446	0.432	0.418	0.447	0.507	0.467	0.509	0.488	0.608									
Calu-6										0.92	0.87	0.928	0.724	1.07	1.14	1.21	0.999	0.96
LC-2-ad	0.673	0.732	0.775	0.678	0.445	0.555	0.575	0.792	0.535	0.353	0.239	0.191	0.207	1.01	0.954	0.999	0.979	1.12
